The text below walks through data of ChEMBL document CHEMBL1122563, “Design, synthesis, and X-ray data of novel potential antipsychotic agents. Substituted 7-phenylquinolizidines: stereospecific, neuroleptic, and antinociceptive properties” (J Med Chem, 1984).

Each structure is given as a SMILES string. Some results are limits rather than exact numbers.

By ED50 is commonly meant the dose at which the effect has come halfway, by size or by number of responders.

For series [1], the species on record is Mus musculus. In words: animal or person. It is filed as functional. Particulars: sc.
Description: Subcutaneous dose at which 50% of the mouse start to lick their paws later than 10 s using hot plate assay.
For series [2], the species on record is Mus musculus. Nature of the series: animal or person. The format is functional. Particulars: po.
Description: Peroral dose at which 50% of the mouse start to lick their paws later than 10 s using hot plate assay.
Series [3] is filed under the species Mus musculus. Nature of the series: animal or person. The format is functional. Particulars: in Rattus norvegicus, po, 1 h.
Description: Peroral dose inhibiting acetic acid induced writhing 1 hr after administration in 50% of the rats.
The test system of series [4] is Mus musculus. In words: Intraperitoneal dose inhibiting acetic acid induced writhing in 50% of mice. The format is functional.
Series [5] is filed under the species Mus musculus. Nature of the series: animal or person. To be noted: in Rattus norvegicus, sc, 0.5 h. It is filed as functional.
Description: Subcutaneous dose inhibiting acetic acid induced writhing 0.5 hr after administration in 50% of the rats.
The species named for series [6] is Mus musculus. Nature of the series: animal or person. It is filed as functional. Particulars: in Rattus norvegicus, sc, 8 h.
Description: Subcutaneous dose inhibiting acetic acid induced writhing 8 hr after administration in 50% of the rats.
The species named for series [7] is Mus musculus. Nature of the series: animal or person. To be noted: in Rattus norvegicus, po, 24 h. The format is functional.
Description: Peroral dose inhibiting acetic acid induced writhing 24 hr after administration in 50% of the rats.
For series [8], the species on record is Mus musculus. Nature of the series: animal or person. The format is functional. Particulars: in Rattus norvegicus, po, 8 h.
Description: Peroral dose inhibiting acetic acid induced writhing 8 hr after administration in 50% of the rats.
Series [9] can be described thus: Levels of homovanillic acid (HVA) in rat brain 2 hour after an intraperitoneal injection dose. It is filed as ADME, tissue-based. Particulars: in vivo, ip.
Series [10] is filed under the species Rattus norvegicus. In words: dose producing 50% of the theoretically obtained maximum catalepsy in rats. It is filed as functional.
Series [11] is filed under the species Rattus norvegicus. Nature of the series: animal or person. Particulars: ip.
Description: (§1) Intraperitoneal dose producing a block of avoidance response in 50% of the rats.
For series [12], the species on record is Rattus norvegicus.
Description: as §1
The species named for series [13] is Mus musculus. Nature of the series: Dose at which 50% of the mouse show not more than one extension movement. The format is functional.
[14] abbreviates: Mus musculus, ip, read-out: ED50.
Where [15] appears, read: Rattus norvegicus, read-out: ED50.

`CCCC[C@]1(OC(C)=O)CCN2C[C@H](c3ccccc3)CC[C@H]2C1`: the 50% effective dose (ED50) was 100 mg/kg in series [1], 551 mg/kg in series [2] and 10 mg/kg in [3].
Turning to `CC(=O)O[C@]1(C(C)(C)C)CCN2C[C@H](c3ccccc3Cl)CC[C@@H]2C1.Cl`, the 50% effective dose (ED50) in [4] (setting [14]) is 28 mg/kg.
Take `CN1CC[C@]23c4c5ccc(O)c4O[C@H]2[C@@H](O)C=C[C@H]3[C@H]1C5.Cl` [MORPHINE HYDROCHLORIDE]: the ED50 is 9.6 mg/kg in series [1]; 0.96 mg/kg in series [5]; 135 mg/kg in series [6]; 36 mg/kg in series [2]; 2.4 mg/kg in series [3]; more than 550 mg/kg in series [7]. This compound registered an ED50 in series [8] of 86 mg/kg.
In [9], `CC(C)(C)[C@]1(O)CCN2C[C@@H](c3ccccc3Cl)CC[C@@H]2C1` showed an HVA level of 449%. Besides, the figures for the ED50 in [10] (setting [15]) and in series [11] were 20.2 mg/kg and 10 mg/kg, respectively.
In the case of `CC(=O)O[C@@]1(C(C)(C)C)CCN2C[C@@H](c3ccc(Cl)cc3Cl)CC[C@@H]2C1.Cl`, the ED50 in series [4] (setting [14]) turned out to be 300 mg/kg.
In turn, `CC(C)[C@]1(O)CCN2C[C@@H](c3ccc(Cl)cc3Cl)CC[C@@H]2C1.Cl` gave an HVA level in series [9] of 280%. The figures for the ED50 in series [10] (setting [15]) and in series [11] were 9.2 mg/kg and 17.5 mg/kg, respectively.
Take `CC(C)(C)[C@]1(O)CCN2C[C@@H](c3ccc(Cl)cc3)CC[C@@H]2C1.Cl`: in [9], the HVA level amounted to 290%. Further, the ED50 is 16 mg/kg in series [10] (setting [15]) and 13.5 mg/kg in series [11].
Take `Cl.O[C@@]1(c2ccccc2)CCN2C[C@@H](c3ccccc3Cl)CC[C@@H]2C1`: in [9], the HVA level came out at 340%. Further, the ED50 is more than 10 mg/kg in [10] (setting [15]) and 7 mg/kg in series [11].
`CC(C)(C)[C@]1(O)CCN2C[C@@H](c3cccc(Cl)c3)CC[C@@H]2C1.Cl` came in with an HVA level in series [9] of 103%. Further, the ED50 in series [10] (setting [15]) and in [11] was more than 30 mg/kg in each case.
Turning to `CC(C)(C)[C@]1(O)CCN2C[C@@H](c3c(Cl)cccc3Cl)CC[C@@H]2C1.Cl`, the median effective dose (ED50) in series [10] (setting [15]) and in series [11] was more than 30 mg/kg each time.
Turning to `CCCC[C@@]1(OC(C)=O)CCN2C[C@@H](c3ccccc3)CC[C@@H]2C1.Cl`, in [4] (setting [14]), the ED50 was more than 100 mg/kg.
As to `CC[C@]1(O)CCN2C[C@@H](c3ccc(Cl)cc3Cl)CC[C@@H]2C1`, the HVA level in series [9] came to 284%. In [11], this compound showed an ED50 of more than 30 mg/kg.
`CC(C)(C)[C@]1(O)CCN2C[C@@H](c3ccc(C(F)(F)F)cc3)CC[C@@H]2C1.Cl` had an HVA level in [9] of 369%. Further, the values for the median effective dose (ED50) in [10] (setting [15]) and in series [11] were more than 30 mg/kg and 18.5 mg/kg, respectively.
In [9], `CC(C)(C)[C@]1(O)CCN2C[C@@H](c3ccccc3)CC[C@@H]2C1.Cl` gave an HVA level of 308%. In series [11], this compound returned an ED50 of more than 30 mg/kg.
On to `CC(C)(C)[C@@]1(O)CCN2C[C@H](c3ccccc3Cl)CC[C@@H]2C1.Cl` (stereo in doubt; (+)-5g), for which the ED50 in series [4] was more than 30 mg/kg.
`CC(C)(C)[C@]1(O)CCN2C[C@@H](c3ccc(Cl)cc3Cl)CC[C@@H]2C1.Cl` (stereo in doubt; 5e) gave an HVA level in series [9] of 557%. Further, the ED50 in series [10] stood at 12.2 mg/kg; in series [12] it was 6.4 mg/kg.
Compound `CCCC[C@]1(O)CCN2C[C@@H](c3ccc(Cl)cc3Cl)CC[C@@H]2C1.Cl` yielded an HVA level in series [9] of 150%. Moreover, the ED50 in [10] (setting [15]) is more than 10 mg/kg; in series [11], 42 mg/kg.
On to `CCCC[C@@]1(O)CCN2C[C@H](c3ccccc3)CC[C@@H]2C1` (stereo in doubt; (+)-19), for which the ED50 in [4] (setting [14]) is more than 30 mg/kg.
As to `C[C@]1(O)CCN2C[C@@H](c3ccc(Cl)cc3Cl)CC[C@@H]2C1`, in series [9], the HVA level came to 157%. For the same compound, in [11], the ED50 was more than 30 mg/kg.
With `CC(=O)O[C@@]1(C(C)(C)C)CCN2C[C@@H](c3ccc(Cl)cc3)CC[C@@H]2C1.Cl`, the ED50 in series [4] (setting [14]) is 4 mg/kg.
As for `CC(C)(C)[C@]1(O)CCN2C[C@@H](c3ccc(Cl)cc3Cl)CC[C@@H]2C1.Cl` (stereo in doubt; (+)-5e), in series [9], the HVA level was determined as 283%. The ED50 in [10] was 28.4 mg/kg; in series [12], more than 30 mg/kg.
Turning to `CC(C)(C)[C@]1(O)CCN2C[C@@H](c3ccc(Cl)c(Cl)c3)CC[C@@H]2C1.Cl`, the HVA level in series [9] was 190%. The results for the median effective dose (ED50) in series [10] (setting [15]) and in series [11] were 30 mg/kg and more than 30 mg/kg, respectively.
In series [9], `Cl.O[C@]1(c2ccccc2)CCN2C[C@@H](c3ccccc3Cl)CC[C@@H]2C1` returned an HVA level of 99%. For the same compound, the ED50 in series [11] is more than 30 mg/kg.
In the case of `CCC(C)[C@]1(O)CCN2C[C@@H](c3ccc(Cl)cc3Cl)CC[C@@H]2C1.Cl` (some centres not stated), in series [9], the HVA level amounted to 467%. Moreover, the ED50 in [10] (setting [15]) worked out at 5.5 mg/kg; in [11] it was 6.25 mg/kg.
In the case of `CCCC[C@@]1(OC(C)=O)CCN2C[C@H](c3ccccc3)CC[C@H]2C1`, the median effective dose (ED50) in [1] is 1.1 mg/kg; in series [5], 0.14 mg/kg; in series [6], 3.8 mg/kg; in series [7] it was 69 mg/kg; in series [8] it was 4.9 mg/kg.
Turning to `CC(=O)O[C@@]1(C(C)(C)C)CCN2C[C@@H](c3ccccc3Cl)CC[C@@H]2C1.Cl` (stereo in doubt; 23), the ED50 in series [4] (setting [14]) was determined as 36 mg/kg.
Still for that read-out and setting: the figure for `CC(=O)O[C@@]1(c2ccccc2)CCN2C[C@@H](c3ccccc3Cl)CC[C@@H]2C1.Cl` is 2.8 mg/kg.
`CC(=O)O[C@@]1(C(C)(C)C)CCN2C[C@@H](c3ccccc3Cl)CC[C@@H]2C1.Cl` (stereo in doubt; (-)-23): in series [13], the ED50 was more than 30 mg/kg.
In the case of `CC(=O)O[C@@]1(C(C)(C)C)CCN2C[C@@H](c3ccccc3)CC[C@@H]2C1.Cl`, in series [4] (setting [14]), the ED50 was 2.6 mg/kg.
Consider `CC(C)(C)[C@@]1(O)CCN2C[C@H](c3ccccc3Cl)CC[C@@H]2C1.Cl` (stereo in doubt; (-)-5g), for which the ED50 in series [4] was more than 10 mg/kg.
For the compound `CC(C)(C)[C@]1(O)CCN2C[C@@H](c3ccc(Cl)cc3Cl)CC[C@@H]2C1.Cl` (stereo in doubt; (-)-5e), the HVA level in series [9] is 350%. Also, the ED50 in series [10] stood at 4.4 mg/kg; in [12], 4.7 mg/kg.
